The structures appear in SMILES notation. The source made the active and inactive calls. The calls are words filed in the database; no cut-off is given here.

This note sets out measurements from ChEMBL document CHEMBL4706629, “New derivatives of 4'-phenyl-2,2':6',2″-terpyridine as promising anticancer agents” (Eur J Med Chem, 2021).

One experiment has as its system DNA. Nature of the experiment: Induction of Escherichia coli supercoiled pUC19 plasmid DNA cleavage assessed as decrease in supercoiled form of plasmid at 25 uM incubated for 60 mins by agarose gel electrophoresis analysis. In kind it is nucleic-acid assay.
In experiment [1] the test system is MCF7. Nature of the experiment: Induction of apoptosis in human MCF7 cells assessed as viable cells at 7.5 uM measured after 48 hrs by Annexin V and dead cell kit analysis (reference value: 97.4%). It is filed as functional. Conditions: read-out: Activity.
The test system of experiment [2] is PANC-1. Nature of the experiment: Down regulation of p21 expression in human PANC-1 cells at 5 uM measured after 24 hrs by Western blot analysis. It is filed as functional, cell-based.
Experiment [3] relates to PANC-1. Nature of the experiment: Up regulation of p21 expression in human PANC-1 cells at 0.5 uM measured after 24 hrs by Western blot analysis. It is filed as functional, cell-based.
For experiment [4], the system named is PANC-1. Nature of the experiment: Induction of reactive oxygen species generation in human PANC-1 cells at 1 uM measured after 12 hrs by cellrox-green reagent based assay. It is filed as functional, cell-based.
For experiment [5], the system named is PANC-1. Nature of the experiment: Cell cycle arrest in human PANC-1 cells assessed as accumulation at S-phase at 2.5 uM measured after 24 hrs by muse cell analyser (reference value: 14.3 to 14.9%). In kind it is functional.
Experiment [6] has as its system MCF7. Nature of the experiment: Induction of apoptosis in human MCF7 cells measured after 48 hrs by Annexin V and dead cell kit analysis. In kind it is functional, cell-based. The following applies: dose 5-7.5 µM.
For experiment [7], the system named is PANC-1. Nature of the experiment: Cell cycle arrest in human PANC-1 cells assessed as accumulation at S-phase at 7.5 uM measured after 24 hrs by muse cell analyser (reference value: 14.3 to 14.9%). It is filed as functional.
For experiment [8], the system named is MCF7. Nature of the experiment: Cell cycle arrest in human MCF7 cells assessed as accumulation at G2/M-phase at 5 uM measured after 24 hrs by muse cell analyser (reference value: 30.92 to 33.6%). In kind it is functional.
The test system of experiment [9] is PANC-1. Nature of the experiment: Induction of apoptosis in human PANC-1 cells assessed as increase in PARP cleavage at 0.5 to 5 uM measured after 24 hrs by Western blot analysis. The following applies: dose 0.5-5 µM. It is filed as functional, cell-based.
The nature of experiment [10]: Up regulation of HIF1 expression in human PANC-1 cells at 0.5 to 5 uM measured after 24 hrs by Western blot analysis relative to control. It is filed as functional. The following applies: dose 0.5-5 µM.
The subject of experiment [11] is MCF7. Nature of the experiment: Effect on cdc2 expression in human MCF7 cells at 1 to 5 uM measured after 24 hrs by Western blot analysis. It is filed as functional, cell-based. Conditions: dose 1-5 µM.
Experiment [12] concerns MCF7. Nature of the experiment: Cell cycle arrest in human MCF7 cells assessed as accumulation at S-phase at 7.5 uM measured after 24 hrs by muse cell analyser (reference value: 9.9 to 11.66%). In kind it is functional.
The test system of experiment [13] is MCF7. Nature of the experiment: Down regulation of cyclin E1 expression in human MCF7 cells at 1 uM measured after 24 hrs by Western blot analysis. In kind it is functional, cell-based.
The test system of experiment [14] is PANC-1. Nature of the experiment: Induction of apoptosis in human PANC-1 cells assessed as early apoptotic cells at 5 uM measured after 48 hrs by Annexin V and dead cell kit analysis (reference value: 10.95%). In kind it is functional.
For experiment [15], the system named is PANC-1. Nature of the experiment: Up regulation of p53 expression in human PANC-1 cells at 0.5 to 5 uM measured after 24 hrs by Western blot analysis relative to control. In kind it is functional, cell-based. Conditions: dose 0.5-5 µM.
Experiment [16] deals with PANC-1. Nature of the experiment: Effect on cdc2 expression in human PANC-1 cells at 0.5 to 5 uM measured after 24 hrs by Western blot analysis. It is filed as functional, cell-based. Conditions: dose 0.5-5 µM.
The subject of experiment [17] is PANC-1. Nature of the experiment: Cell cycle arrest in human PANC-1 cells assessed as increase in accumulation at G0/G1-phase measured after 24 hrs by muse cell analyser. It is filed as functional, cell-based.

As for `c1ccc(-c2cn(-c3ccc(-c4cc(-c5ccccn5)nc(-c5ccccn5)c4)cc3)nn2)nc1`, the result in the experiment with DNA, in the experiment on PANC-1 [2], with PANC-1 [3], with PANC-1 [4], in the experiment on PANC-1 [9] and with MCF7 [13] was Active. Besides, in the experiment with MCF7 [1], the viability at 7.5 µM was 50.2%. Further, the Activity with PANC-1 [5] was 11.2%; with MCF7 [6], “Dose-dependent effect”; in the experiment with PANC-1 [7], 6.9%; with MCF7 [8], 22.4%; in the experiment with MCF7 [12] it was 10%; in the experiment on PANC-1 [14], 41.4%. In addition, in the experiment with PANC-1 [17], the Activity entry was “Dose-dependent effect”. Moreover, in [10], the “fold change (FC)” value turned out to be 30. Besides, the result with MCF7 [11], in the experiment with PANC-1 [15] and in the experiment with PANC-1 [16] was inactive.
